Reference: patent US11220534B2, “Treatment of neurological diseases” (Lancaster University Business Enterprises Limited, priority 2016, dated 2022)
Where no end group is shown, it is not given here. [ ]: non-standard residue; d: D form. Aib = CC(C)(N)C(=O)O

What was measured:
Assay type in all cases: in vivo
APP/PS1 mice [1] = test: Reversal Morris water maze test
Description: (§1) Materials and methods in Example 2 are the same as Example 1 except when stated. Reagents used in Example 2 only include antibodies to p-PI3Kp85, PI3Kp85, p-Akt (ser473), Akt, p-GSK3β (Y216), and GSK3β from Abcam, Inc. Cambridge, UK. The antibody to p-tau (AT8) from Thermo Scientific USA. Mouse Anti-β-actin, Anti-Rabbit IgG, Anti-mouse IgG, CY3-Anti-mouse IgG, RIPA Lysate, BCA Protein Assay Kit, DAPI staining solution and Anti-fluorescence decay agent from Boster (Wuhan, China).
(§2) Classical Morris water maze (MWM) test was used to investigate spatial reference memory of mouse. The water maze mainly included a stainless steel pool and a platform in the pool for escape. There were several landmarks fixed to the walls of the water maze. The pool was filled with tap water at 22±2° C. The first phase was acquisition trial phase which was consisted of five training days (days 1-5) and four trials each day. The pool (diameter, 120 cm; high, 50 cm) was divided into four quadrants and the escape platform (diameter, 12 cm) hidden 1 cm beneath the water surface was placed in the center of the first quadrant. […] The escape latencies were recorded by Ethovision 3.0 software system (Noldus Information Technology, the Netherlands). […] The percentage of swimming time in target quadrant (the first quadrant) and frequency of platform crossing were recorded. […] Swimming time to target was recorded.

APP/PS1 mice [2] = test: Immunostaining for phosphorylated tau protein in the hippocampus; conditions: APP/PS1 mice vs APP/PS1-saline; FIG. 10; N=4 per group
Description: Materials and methods in Example 2 are the same as Example 1 except when stated. Reagents used in Example 2 only include antibodies to p-PI3Kp85, PI3Kp85, p-Akt (ser473), Akt, p-GSK3β ([…]), and GSK3β from Abcam, Inc. Cambridge, UK. The antibody to p-tau (AT8) from Thermo Scientific USA. Mouse Anti-β-actin, Anti-Rabbit IgG, Anti-mouse IgG, CY3-Anti-mouse IgG, RIPA Lysate, BCA Protein Assay Kit, DAPI staining solution and Anti-fluorescence decay agent from Boster (Wuhan, China). After in vivo hippocampal L-LTP recording, the mice were anesthetized with chloral hydrate (0.007 ml/g) by intraperitoneal injection and then the brain tissue was fixed with paraformaldehyde for 24 hours, after that the tissue was transferred to 30% sucrose solution for dehydration. The brain tissue was harvested, frozen in -80° C., and then sliced at a thickness of 30 μm, put the frozen section in PBS, blocked with normal goat serum (Solarbio, Beijing, China), followed by adding the primary antibody, second antibody and DAPI. Phosphorylated tau protein was observed by confocal laser scanning microscopy.

C57BL/6 mice given MPTP = test: Immunohistochemistry for TH in the substantia nigra pars compacta, MPTP Parkinson mouse model; conditions: 10 nmol/kg i.p. once daily for 2 weeks, FIG. 4, N=6 per group
Description: A standard model to induce Parkinson like symptoms in mice is the injection of the chemical (MPTP) (Li et al., 2009). This chemical impairs or kills neurons in the brain that produce dopamine. The mice develop motor impairments, and the dopaminergic neurons in the brain are reduced in numbers and function. The enzyme tyrosine hydroxylase (TH) is required to synthesise dopamine. A loss of TH signifies a loss of dopamine production (Harkavyi et al., 2008).
Adult male C57BL/6 mice were given the dopaminergic toxin MPTP (20 mg/kg in 0.1 mL of PBS i.p. at 2-h intervals of 4 doses MPTP; Sigma) or vehicle (PBS) for one day. […]
Immunohistochemistry for TH in the Substantia Nigra Pars Compacta and the Striatum Six animals per group were analysed for expression of tyrosine hydroxylase (TH), a marker for dopamine production. Coronal brain sections (20 μm) from striatum (bregma […]) and SNpc (bregma […]) were analysed by immunohistochemistry using antibodies recognising TH.
Sections were cut on a cryostat and postfixed in 4% paraformaldehyde, washed in PBS, treated with 0.3% H2O2 in methanol for 20 min, and washed again. […] For each animal, three tissue sections from one level of striatum were stained and analysed for TH-positive fibre innervation. […] Two tissue sections from each level were quantified by immunohistochemistry. […]

APP/PS1 mice [3] = test: Y-maze test for working memory in AD mice; conditions: FIG. 6, N=8-14 per group
Description: Materials and methods in Example 2 are the same as Example 1 except when stated. Reagents used in Example 2 only include antibodies to p-PI3Kp85, PI3Kp85, p-Akt (ser473), Akt, p-GSK3β ([…]), and GSK3β from Abcam, Inc. Cambridge, UK. The antibody to p-tau (AT8) from Thermo Scientific USA. Mouse Anti-β-actin, Anti-Rabbit IgG, Anti-mouse IgG, CY3-Anti-mouse IgG, RIPA Lysate, BCA Protein Assay Kit, DAPI staining solution and Anti-fluorescence decay agent from Boster (Wuhan, China). Spatial working memory was assessed by recording spontaneous alternation behaviour in a Y-maze. The maze was made of three 30 cm long, 7 cm high, 15 cm wide arms and the arms converged in an equilateral triangular central area. Each mouse was placed at the central triangular area and allowed to move freely through the maze during an 8-min session. The total arm entries and arm order was recorded by Smart 3.0 software system. Alternation was defined as successive entries into the three arms, on overlapping triplet sets. The percent alternation was calculated as the ratio of actual to possible alternations (defined as the total number of arm entries minus 2) multiplied by 100.

APP/PS1 mice [4] = test: Classical Morris water maze test
Description: as §1, §2

In the case of “YXEGTFTSDYSIYLDKQAAXEFVNWLLAGGPSSGAPPPSKRRQRRKKRGY-NH2 (Y[Aib]EGTFTSDYSIYLDKQAA[Aib]EFVNWLLAGGPSSGAPPPSKRRQRRKKRGY-NH2) [DA5, No. 12; X=aminoisobutyric acid]”, the “probe test, recall of a change in escape route (reverse Morris water maze)” value (APP/PS1 mice [1]; APP/PS1 mice vs APP/PS1-saline, FIG. 8c, 8d) is reported as “recalled a change in escape route to a greater extent than APP/PS1-saline mice”, the “cognitive flexibility and ability to relearn (reverse Morris water maze)” value (APP/PS1 mice [1]; APP/PS1 mice, FIG. 8, N=8-14 per group) is reported as “protects APP/PS1 mice from decreased cognitive flexibility and restores their ability to relearn” and the “neurofibrillary tangles (immunofluorescence staining of p-tau protein)” value (APP/PS1 mice [2]) is reported as “reduces neurofibrillary tangles”. For the same substance, the “MPTP-induced reduction of TH in the substantia nigra, pars compacta (protection of dopaminergic neurons)” value (C57BL/6 mice given MPTP) was “protected dopaminergic neurons at a greater rate than the single GIP and GLP-1 analogues”, the “spatial working memory (percent alternation, Y-maze)” value (APP/PS1 mice [3]) was “improved spatial working memory” and the “probe test, recall of the escape route (classical Morris water maze)” value (APP/PS1 mice [4]; APP/PS1 mice vs APP/PS1-saline, FIG. 7c, 7d) was “recalled the escape route to a greater extent than APP/PS1-saline mice”. The “disorder in spatial memory (classical Morris water maze)” value (APP/PS1 mice [4]; APP/PS1 mice, FIG. 7, N=8-14 per group) was “ameliorated”.
